Where two headings read alike, the source gives them in different places.
Assays:
[1] = molecular target: T1, Aiolos (Homo sapiens, UniProt Q96SW2+Q9UKT9); assay: Enzyme fragment complementation (EFC) degradation assay, DF15 cells expressing ePL-tagged substrate; format: cell-based; details: for Emax: DF15, DF15 ePL-Aiolos, remaining substrate; for DC50: DF15 ePL-Aiolos, read-out: Aiolos degradation EC50
T1 construct: expressed in transfected cells; host or cells: DF15 cells

[2] = molecular target: T2, ZFP91 (Homo sapiens, UniProt Q96JP5+Q96SW2); assay: as above; format: cell-based; details: for Emax: remaining substrate; for DC50: read-out: ZFP91 degradation EC50
T2 construct: expressed in transfected cells; host or cells: DF15 cells

[3] = test system: SU-DHL-4; assay: CellTiter-Glo (CTG) antiproliferative assay, 5-day; format: cell-based; details: Homo sapiens, 120 h; SU-DHL-4, 5-day assay, n = 6
Experimental: To evaluate the activity of both Compound 1 and Compound 2 in DLBCL cells, a CellTiter-Glo (CTG) assay was performed to measure the antiproliferative activity.

[4] = molecular target: T2, ZFP91; assay: ePL-tagged substrate degradation kinetics in DF15 cells (enantiomer comparison); format: cell-based; design: ZFP91 Y-constant: scale not given here; details: for DC50: read-out: ZFP91 EC50
Experimental: In a second assay, DF15 cell lines expressing ePL-tagged target protein substrates were used as a model system to monitor protein degradation at 0.75, 1, 1.5, 3, 4, and 24 hours over a concentration range from 1 pM to 10 μM. The proteins evaluated were Ikaros (FIG. 17), Aiolos, and ZFP91. Compound 1 and Compound 2 were both able to degrade the substrate proteins at all time points (Table 9). In a further assay, additional time points were included to monitor the effect of treatment with Compound 1 and Compound 2.
The depth of substrate protein degradation described by the Y-constant was also measured in this assay against a negative control luciferase inhibitor (CC1071297, Y-constant=0).

[5] = test system: CRBN^WT and CRBN^−/− DLBCL cells; assay: Proliferation of CRBN^WT and CRBN^−/− DLBCL cells (six lines); format: cell-based
Text: The activated B-cell (ABC) and MYC/BCL2 double expressor cell lines SU-DHL-2 and RIVA, the germinal center B-cell (GCB) and MYC/BCL2 double hit cell lines (and expressing BCL6) Karpas-422, SU-DHL-10, WSU-DLCL2, and the primary mediastinal B-cell lymphoma (PMBL) cell line Farage were infected with a CAS9 expressing lentivirus construct to generate the control CAS9 expressing cells. The Cas9 cells had wild type cereblon expression (CRBN^WT).
To generate the cereblon knock out cells (CRBN^−/−), the individual control CAS9 cells were infected with a construct expressing a subgenomic single guide RNA (sgRNA). Western blot analysis confirmed the absence of cereblon protein in the CRBN^−/− cells, relative to the levels of the housekeeping protein β-tubulin. The CRBN^WT and CRBN^−/− cells were treated with increasing concentrations of Compound 1 for five days.

[6] = test system: SU-DHL-2^CRBN−/− cells; assay: Western blot time- and concentration-response in cereblon knockout cells; format: cell-based
Text: However, Compound 1 had no activity in SU-DHL-2^CRBN−/− cells, indicating the requirement of cereblon for induction of apoptosis by Compound 1 in DLBCL (FIG. 5 C).

[7] = test system: endothelial cells, T- and B-lymphocytes, coronary smooth muscle cells, and fibroblasts; assay: BioMAP Diversity PLUS Panel, antiproliferative effects; format: cell-based, human
Experimental: The BioMAP Diversity PLUS Panel was assessed after treatment with Compound 1. The X-axis lists the quantitative protein-based biomarker readouts measured in each system. The Y-axis represents a log-transformed ratio of the biomarker readouts for the drug-treated sample (n=1) over vehicle controls (n≥6). The grey region around the Y-axis represents the 95% significance envelope generated from historical vehicle controls. Biomarker activities were annotated when 2 or more consecutive concentrations change in the same direction relative to vehicle controls, are outside of the significance envelope, and have at least one concentration with an effect size >20% (log 10 ratio >0.1). Antiproliferative effects are indicated by a thick grey arrow.
The activity of Compound 1 was profiled in a panel of human primary cell-based assays, modeling complex tissue and disease biology of organs (vasculature, immune system, skin, lung) and general tissue biology using the BioMAP System (DiscoveRx, Fremont, Calif.).
The BioMAP System consists of twelve primary human monoculture or co-culture systems in stimulated and non-stimulated control conditions (FIG. 4, panel A). When tested at 0.01, 0.1, 1, and 10 μM, Compound 1 mediated changes in key biomarker activities. […]

[8] = molecular target: Ikaros (Homo sapiens, UniProt Q13422+Q96SW2); assay: Ikaros protein level by flow cytometry during ex vivo myeloid differentiation; format: cell-based
Text: Ikaros protein levels were monitored during periods of Compound 1 exposure and recovery. Ikaros levels were reduced during Compound 1 exposure and recovered following drug withdrawal in a concentration-dependent manner with no significant differences noted in association with different exposure schedules (FIG. 21; FIG. 22). Ikaros levels began returning to normal after at least 3 days following washout, predating full recovery of maturation of late-stage neutrophil precursors (FIG. 23). […] Accordingly, Ikaros levels in neutrophils can serve as a marker for response to Compound 1.
Ikaros protein level was analyzed by flow cytometry every two or three days. As shown in FIG. 21 and FIG. 22, Ikaros protein was degraded under both Compound 1 treatment schedules (14 days and 5 days) and its expression was restored after drug washout in a concentration dependent manner.

T1 sequence (Q9UKT9 whole entry, the tested form may be a part): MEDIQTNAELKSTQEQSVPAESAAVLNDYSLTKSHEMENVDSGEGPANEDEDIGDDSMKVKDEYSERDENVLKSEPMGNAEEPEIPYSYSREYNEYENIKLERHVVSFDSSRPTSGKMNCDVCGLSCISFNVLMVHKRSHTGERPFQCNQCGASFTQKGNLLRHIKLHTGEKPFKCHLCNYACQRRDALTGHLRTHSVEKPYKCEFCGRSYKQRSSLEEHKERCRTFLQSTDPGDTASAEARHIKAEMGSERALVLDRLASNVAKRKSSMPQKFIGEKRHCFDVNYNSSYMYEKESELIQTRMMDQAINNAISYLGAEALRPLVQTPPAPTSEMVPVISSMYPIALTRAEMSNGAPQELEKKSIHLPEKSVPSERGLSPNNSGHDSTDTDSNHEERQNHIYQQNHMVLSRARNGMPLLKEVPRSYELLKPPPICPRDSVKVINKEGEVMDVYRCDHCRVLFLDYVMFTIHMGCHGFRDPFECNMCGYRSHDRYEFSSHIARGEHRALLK
T1 sequence (Q96SW2 whole entry, the tested form may be a part): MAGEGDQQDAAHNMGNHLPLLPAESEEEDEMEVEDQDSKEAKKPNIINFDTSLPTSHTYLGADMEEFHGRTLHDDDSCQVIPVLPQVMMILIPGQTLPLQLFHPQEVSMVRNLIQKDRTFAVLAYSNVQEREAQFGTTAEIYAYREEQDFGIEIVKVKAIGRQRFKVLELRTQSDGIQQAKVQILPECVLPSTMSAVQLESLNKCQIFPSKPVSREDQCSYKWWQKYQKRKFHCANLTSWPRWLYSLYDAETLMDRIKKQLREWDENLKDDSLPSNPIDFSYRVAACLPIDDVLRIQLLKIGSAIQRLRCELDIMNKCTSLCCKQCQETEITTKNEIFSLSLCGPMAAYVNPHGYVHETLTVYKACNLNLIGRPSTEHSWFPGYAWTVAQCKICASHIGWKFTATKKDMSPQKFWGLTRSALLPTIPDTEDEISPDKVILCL
T1 sequence (Q16531 whole entry partner, the tested form may be a part): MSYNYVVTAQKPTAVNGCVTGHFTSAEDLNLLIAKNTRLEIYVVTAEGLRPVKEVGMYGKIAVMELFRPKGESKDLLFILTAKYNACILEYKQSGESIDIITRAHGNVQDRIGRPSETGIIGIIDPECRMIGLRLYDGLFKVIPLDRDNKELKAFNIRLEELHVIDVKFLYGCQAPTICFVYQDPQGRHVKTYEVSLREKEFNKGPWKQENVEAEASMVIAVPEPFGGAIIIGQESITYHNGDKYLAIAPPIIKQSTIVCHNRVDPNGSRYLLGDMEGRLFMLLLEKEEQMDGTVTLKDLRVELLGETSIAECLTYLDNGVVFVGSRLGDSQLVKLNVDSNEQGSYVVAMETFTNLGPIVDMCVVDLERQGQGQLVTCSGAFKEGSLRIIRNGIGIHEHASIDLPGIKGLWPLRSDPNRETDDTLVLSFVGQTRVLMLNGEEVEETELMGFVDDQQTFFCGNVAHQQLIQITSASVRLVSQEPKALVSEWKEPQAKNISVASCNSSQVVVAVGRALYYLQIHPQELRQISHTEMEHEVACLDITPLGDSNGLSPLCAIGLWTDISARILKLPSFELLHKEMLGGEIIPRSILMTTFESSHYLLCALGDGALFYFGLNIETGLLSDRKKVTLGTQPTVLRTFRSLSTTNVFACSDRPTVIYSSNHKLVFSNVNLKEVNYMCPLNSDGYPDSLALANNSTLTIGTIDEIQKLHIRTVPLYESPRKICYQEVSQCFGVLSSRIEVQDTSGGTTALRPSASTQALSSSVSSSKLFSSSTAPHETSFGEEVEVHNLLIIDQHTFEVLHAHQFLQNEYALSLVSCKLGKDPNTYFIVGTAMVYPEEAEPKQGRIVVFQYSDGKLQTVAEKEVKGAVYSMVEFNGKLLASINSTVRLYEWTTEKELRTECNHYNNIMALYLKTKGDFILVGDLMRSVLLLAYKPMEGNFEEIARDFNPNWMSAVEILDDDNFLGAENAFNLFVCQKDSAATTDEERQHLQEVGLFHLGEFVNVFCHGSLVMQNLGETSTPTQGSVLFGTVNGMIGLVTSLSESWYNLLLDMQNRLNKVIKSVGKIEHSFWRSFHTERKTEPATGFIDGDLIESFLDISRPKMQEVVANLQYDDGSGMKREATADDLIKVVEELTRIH
T2 sequence (Q96JP5 whole entry): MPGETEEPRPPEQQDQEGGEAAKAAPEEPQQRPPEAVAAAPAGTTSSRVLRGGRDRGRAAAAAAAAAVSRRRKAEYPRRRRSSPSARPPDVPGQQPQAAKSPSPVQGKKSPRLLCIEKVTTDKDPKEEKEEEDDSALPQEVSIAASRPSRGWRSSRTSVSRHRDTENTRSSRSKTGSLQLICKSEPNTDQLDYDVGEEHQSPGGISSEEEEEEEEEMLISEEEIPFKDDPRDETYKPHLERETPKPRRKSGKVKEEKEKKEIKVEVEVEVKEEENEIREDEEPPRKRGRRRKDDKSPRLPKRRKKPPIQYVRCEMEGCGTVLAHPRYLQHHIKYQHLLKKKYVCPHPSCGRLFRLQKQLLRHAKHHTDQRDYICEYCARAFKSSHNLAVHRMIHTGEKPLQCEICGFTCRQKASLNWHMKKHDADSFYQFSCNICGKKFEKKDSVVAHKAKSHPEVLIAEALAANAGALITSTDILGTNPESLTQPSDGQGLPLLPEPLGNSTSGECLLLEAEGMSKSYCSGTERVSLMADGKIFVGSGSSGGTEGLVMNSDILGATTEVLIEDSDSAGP
T2 sequence (Q96SW2 whole entry): as the sequence (Q96SW2 whole entry, the tested form may be a part) above
T2 sequence (Q16531 whole entry partner): as the sequence (Q16531 whole entry partner, the tested form may be a part) above
Chain of Ikaros (Q13422 whole entry): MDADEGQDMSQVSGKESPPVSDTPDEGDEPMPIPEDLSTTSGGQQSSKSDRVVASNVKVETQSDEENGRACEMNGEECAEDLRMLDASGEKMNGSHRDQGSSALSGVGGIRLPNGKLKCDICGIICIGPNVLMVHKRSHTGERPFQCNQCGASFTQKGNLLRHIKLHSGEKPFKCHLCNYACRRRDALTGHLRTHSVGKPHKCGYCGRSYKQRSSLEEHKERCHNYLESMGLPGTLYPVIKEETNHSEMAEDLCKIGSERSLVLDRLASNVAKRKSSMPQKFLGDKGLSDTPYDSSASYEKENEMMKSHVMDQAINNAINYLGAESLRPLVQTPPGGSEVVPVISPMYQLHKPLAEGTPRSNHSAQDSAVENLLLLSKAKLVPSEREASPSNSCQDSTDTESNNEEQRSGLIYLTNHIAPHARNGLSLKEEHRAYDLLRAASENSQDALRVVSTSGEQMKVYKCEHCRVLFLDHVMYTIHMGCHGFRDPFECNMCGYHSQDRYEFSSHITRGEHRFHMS
Chain of Ikaros (Q96SW2 whole entry): as the sequence (Q96SW2 whole entry, the tested form may be a part) above
Chain of Ikaros (Q16531 whole entry partner): as the sequence (Q16531 whole entry partner, the tested form may be a part) above

## O=C1CC[C@H](N2C(=O)c3cccc(NCc4ccc(CN5CC(N6CCOCC6)C5)cc4F)c3C2=O)C(=O)N1 [Compound 1, (S)-2-(2,6-dioxopiperidin-3-yl)-4-((2-fluoro-4-((3-morpholinoazetidin-1-yl)methyl)benzyl)amino)isoindoline-1,3-dione]
[1]; 1 hour
  Emax: 60%
  DC50: 600 pM
[1]; 2 hours
  Emax: 16.5%
  DC50: 500 pM
[1]; 6 hours
  Emax: 6%
  DC50: 200 pM
[1]; 24 hours
  Emax: 7%
  DC50: 200 pM
[2]; DF15, DF15 ePL-ZFP91, 1 hour
  Emax: 64%
[2]; DF15, DF15 ePL-ZFP91, 2 hours
  Emax: 26.5%
[2]; DF15, DF15 ePL-ZFP91, 6 hours
  Emax: 4%
[2]; DF15, DF15 ePL-ZFP91, 24 hours
  Emax: 2.5%
[2]; DF15 ePL-ZFP91, 1 hour
  DC50: 1000 pM
[2]; DF15 ePL-ZFP91, 2 hours
  DC50: 500 pM
[2]; DF15 ePL-ZFP91, 6 hours
  DC50: 200 pM
[2]; DF15 ePL-ZFP91, 24 hours
  DC50: 100 pM
[3]
  IC50: 22000 pM
[4]; 0.75 hours
  ZFP91 Y-constant: 37
  DC50: 540 pM
[4]; 1 hour
  ZFP91 Y-constant: 28
  DC50: 360 pM
[4]; 1.5 hours
  ZFP91 Y-constant: 11
  DC50: 360 pM
[4]; 3 hours
  ZFP91 Y-constant: 4.9
  DC50: 190 pM
[4]; 4 hours
  ZFP91 Y-constant: 4.3
  DC50: 170 pM
[4]; 24 hours
  ZFP91 Y-constant: 2.0
  DC50: 150 pM
[5]; 120 h, six DLBCL lines, five days, read-out: IC50 in control CAS9 expressing cells (CRBN^WT)
  IC50: 2500 to 40000 pM
[5]; CRBN^−/− cells
  effect of CRBN knock-out on antiproliferative activity: blocked the antiproliferative activity
[6]
  activity in cereblon knockout cells: no activity
[7]
  antiproliferative effects in BioMAP systems: selectively antiproliferative
[8]; Day 19, all concentrations, after 14 days of treatment
  recovery of Ikaros protein: complete recovery
[8]; neutrophil precursors, following washout
  time after washout at which Ikaros levels began returning to normal: at least 3 days

Reference: patent US20210116454A1, “METHODS FOR TREATING A HEMATOLOGICAL CANCER AND THE USE OF COMPANION BIOMARKERS FOR 2-(2,6-DIOXOPIPERIDIN-3-YL)-4-((2-FLUORO-4-((3-MORPHOLINOAZETIDIN-1-YL)METHYL)BENZYL)AMINO)ISOINDOLINE-1,3-DIONE” (CELGENE CORPORATION, priority 2019, published 2021)
